From US20250129135A1, “Multi-Agonist and Use Thereof” (priority 2021, published 2025)
Starred links: 1 amine or outer side, 2 acyl side, 3 side chain; linkers in the order of their positions; H or OH if unused. Non-standard residues stand in square brackets, D forms with d. Residues, ends and D or L forms follow the SMILES beside them. Groups on a side chain read outwards from the residue. *: point of attachment. C20 diacid = O=C(O)CCCCCCCCCCCCCCCCCCC(=O)*; αMePhe(2-F) = C[C@](N)(Cc1ccccc1F)C(=O)O; γGlu = O=C(O)[C@H](CCC(=O)[*:2])N[*:1]; αMeF = C[C@](N)(Cc1ccccc1)C(=O)O; αMeL = CC(C)C[C@](C)(N)C(=O)O; AEEA = NCCOCCOCC(=O)O; Ac3c = NC1(C(=O)O)CC1; Aib = CC(C)(N)C(=O)O

How the values were obtained:
Human GIP R = molecular target: T1, Human GIP R (Homo sapiens, UniProt P48546); test: cAMP (HTRF) activity in CHO cells stably overexpressing GIP receptor; type: cell-based; details: for Human GIP R Rel. A (Relative Activity): EC50 of human GIP / EC50 of compound
T1 construct: expressed in transfected cells; host or cells: CHO
T1 sequence (P48546 22-466): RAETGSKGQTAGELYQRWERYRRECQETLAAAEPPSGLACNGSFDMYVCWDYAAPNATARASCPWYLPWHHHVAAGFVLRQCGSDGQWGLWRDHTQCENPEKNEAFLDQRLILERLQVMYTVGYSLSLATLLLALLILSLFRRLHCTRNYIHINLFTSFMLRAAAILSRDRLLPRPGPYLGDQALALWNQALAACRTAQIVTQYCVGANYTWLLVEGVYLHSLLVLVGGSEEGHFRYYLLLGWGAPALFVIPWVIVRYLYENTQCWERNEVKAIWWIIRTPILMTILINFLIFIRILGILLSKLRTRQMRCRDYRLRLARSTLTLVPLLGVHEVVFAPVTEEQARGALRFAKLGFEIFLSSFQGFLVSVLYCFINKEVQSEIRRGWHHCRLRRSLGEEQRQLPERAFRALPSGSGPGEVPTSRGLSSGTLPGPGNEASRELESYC
Procedure, shortened: (§1)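 Cells in HBSS are exposed to compound for 60 min at room temperature, followed by 60 min with detection reagent. EC50 (nM) is taken from concentration-response curves.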

Human GCG R = molecular target: T2, Human GCG R (Homo sapiens, UniProt P47871); test: cAMP (HTRF) activity in HEK-293 cells stably overexpressing human GCG receptor; type: cell-based; details: EC50 of human GCG / EC50 of compound
T2 construct: expressed in transfected cells; host or cells: HEK-293
T2 sequence (P47871 26-477): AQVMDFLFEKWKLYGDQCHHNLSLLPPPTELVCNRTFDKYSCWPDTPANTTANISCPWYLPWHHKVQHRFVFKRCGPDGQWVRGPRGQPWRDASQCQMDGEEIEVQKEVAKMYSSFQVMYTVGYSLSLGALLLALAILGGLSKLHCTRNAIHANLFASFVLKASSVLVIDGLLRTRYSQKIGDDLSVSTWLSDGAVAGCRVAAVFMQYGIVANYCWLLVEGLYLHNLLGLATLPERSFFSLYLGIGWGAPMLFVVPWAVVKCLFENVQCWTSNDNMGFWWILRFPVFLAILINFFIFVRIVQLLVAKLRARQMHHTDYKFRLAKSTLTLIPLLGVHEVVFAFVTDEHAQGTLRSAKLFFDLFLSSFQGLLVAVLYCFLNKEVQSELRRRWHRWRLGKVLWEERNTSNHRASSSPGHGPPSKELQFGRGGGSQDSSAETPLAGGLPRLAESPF
Procedure, shortened: as §1

RIN-m5F cells = type: cell-based, rat; details: for Rel. A (Relative Activity) on RIN-m5F: relative to GLP-1(7-37)
Procedure, shortened: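 After 60 min room-temperature exposure of HBSS-suspended RIN-m5F cells to compound and another 60 min with detection reagent, cellular cAMP level was determined.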

3T3-L1 adipocytes = details: for Rel. A (Relative Activity) on 3T3-L1 adipocyte: relative to GIP
Procedure, shortened: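 Compound-induced cAMP was measured in mature 3T3-L1 adipocytes after 60 min room-temperature exposure to a 10-concentration, 3-fold dilution series, followed by 60 min with kit detection reagent and curve fitting. Differentiation used IBMX/dexamethasone/insulin (5 days), insulin with 10 uM rosiglitazone (3 days), then 2–3 days in 10% FBS.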

[1] = system: human primary liver cells; type: cell-based; details: for Rel. A (Relative Activity) on human primary liver cells: relative to GCG
Procedure, shortened: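 cAMP readout after 60 min with detection reagent, following 60 min room-temperature compound incubation. Cells were primary human liver cells thawed at 37° C and resuspended in HBSS.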

Human GLP-1R = Human GLP-1R (Homo sapiens, UniProt P43220); test: cAMP (HTRF) activity in HEK-293 cells stably overexpressing human GLP-1 receptor; type: cell-based; set-up: expressed in transfected cells; host or cells: HEK-293; details: for Human GLP-1R Rel. A (Relative Activity): EC50 of human GLP-1 (7-37) / EC50 of compound; for EC50: stable transfected cell cAMP activity, at least 3 independent tests
Sequence of Human GLP-1R (P43220 24-463): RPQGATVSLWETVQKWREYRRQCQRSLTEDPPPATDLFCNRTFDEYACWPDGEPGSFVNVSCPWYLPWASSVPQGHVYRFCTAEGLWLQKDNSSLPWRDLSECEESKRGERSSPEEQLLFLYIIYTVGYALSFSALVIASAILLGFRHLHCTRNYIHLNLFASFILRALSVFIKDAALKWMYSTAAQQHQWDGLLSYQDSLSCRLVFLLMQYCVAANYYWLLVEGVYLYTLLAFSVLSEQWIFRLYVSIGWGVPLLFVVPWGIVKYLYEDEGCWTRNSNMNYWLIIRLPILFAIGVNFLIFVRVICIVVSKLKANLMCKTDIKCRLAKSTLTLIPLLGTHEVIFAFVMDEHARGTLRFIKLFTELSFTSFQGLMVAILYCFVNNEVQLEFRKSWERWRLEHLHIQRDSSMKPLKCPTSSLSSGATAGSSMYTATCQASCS
Procedure, shortened: as §1

| SMILES | Human GIP R Rel. A (Relative Activity) (Human GIP R) [%] | EC50 (Human GIP R; stable transfected cell cAMP activity, at least 3 independent tests) [nM] | Human GCG R Rel. A (Relative Activity) (Human GCG R) [%] | EC50 (RIN-m5F cells) [nM] | Rel. A (Relative Activity) on RIN-m5F (RIN-m5F cells) [%] | EC50 (3T3-L1 adipocytes) [nM] | Rel. A (Relative Activity) on 3T3-L1 adipocyte (3T3-L1 adipocytes) [%] | EC50 [1] [nM] | Rel. A (Relative Activity) on human primary liver cells [1] [%] | Human GLP-1R Rel. A (Relative Activity) (Human GLP-1R) [%] | EC50 (Human GLP-1R) [nM] |
| --- | --- | --- | --- | --- | --- | --- | --- | --- | --- | --- | --- |
| CC[C@H](C)[C@H](NC(=O)[C@H](Cc1ccccc1)NC(=O)[C@H](C)NC(=O)C(C)(C)NC(=O)[C@H](CCC(N)=O)NC(=O)[C@H](C)NC(=O)[C@H](CCCCNC(=O)COCCOCCNC(=O)COCCOCCNC(=O)CC[C@H](NC(=O)CCCCCCCCCCCCCCCCCCC(=O)O)C(=O)O)NC(=O)[C@H](CCCCN)NC(=O)[C@H](CC(=O)O)NC(=O)[C@H](CC(C)C)NC(=O)[C@](C)(CC(C)C)NC(=O)[C@@H](NC(=O)[C@H](CO)NC(=O)[C@H](Cc1ccc(O)cc1)NC(=O)[C@H](CC(=O)O)NC(=O)[C@H](CO)NC(=O)[C@@H](NC(=O)[C@](C)(Cc1ccccc1F)NC(=O)[C@@H](NC(=O)CNC(=O)[C@H](CCC(N)=O)NC(=O)C(C)(C)NC(=O)[C@@H](N)Cc1ccc(O)cc1)[C@@H](C)O)[C@@H](C)O)[C@@H](C)CC)C(=O)N[C@@H](CCC(=O)O)C(=O)N[C@@H](Cc1ccccc1)C(=O)N[C@@H](CC(C)C)C(=O)N[C@@H](CC(C)C)C(=O)N[C@@H](CCC(=O)O)C(=O)N[C@H](C(=O)N[C@@H](CCCNC(=N)N)C(=O)N1CCC[C@H]1C(=O)N[C@@H](CO)C(=O)N[C@@H](CO)C(=O)NC(C)(C)C(=O)N[C@@H](Cc1c[nH]cn1)C(=O)N1CCC[C@H]1C(=O)N1CCC[C@H]1C(=O)N1CCC[C@H]1C(=O)N[C@@H](CO)C(N)=O)[C@@H](C)O [Compound 39] (H-Y[Aib]QGT[αMePhe(2-F)]TSDYSI[αMeL]LDKK([AEEA-AEEA-γGlu-C20 diacid])AQ[Aib]AFIEFLLETRPSS[Aib]HPPPS-NH2) | 1206.67 | 0.015 | 37.25 | 0.843 | 122.42 | 2.05 | 185.83 | 2.03 | 191.77 | 56.41 |  |
| CC[C@H](C)[C@H](NC(=O)[C@H](Cc1ccccc1)NC(=O)[C@H](C)NC(=O)C(C)(C)NC(=O)[C@H](CCC(N)=O)NC(=O)[C@H](C)NC(=O)[C@H](CCCCNC(=O)COCCOCCNC(=O)COCCOCCNC(=O)CC[C@H](NC(=O)CCCCCCCCCCCCCCCCCCC(=O)O)C(=O)O)NC(=O)[C@H](CCCCN)NC(=O)[C@H](CC(=O)O)NC(=O)[C@H](CC(C)C)NC(=O)[C@H](CC(C)C)NC(=O)[C@@H](NC(=O)[C@H](CO)NC(=O)[C@H](Cc1ccc(O)cc1)NC(=O)[C@H](CC(=O)O)NC(=O)[C@H](CO)NC(=O)[C@@H](NC(=O)[C@](C)(Cc1ccccc1F)NC(=O)[C@@H](NC(=O)CNC(=O)[C@H](CCC(N)=O)NC(=O)C(C)(C)NC(=O)[C@@H](N)Cc1ccc(O)cc1)[C@@H](C)O)[C@@H](C)O)[C@@H](C)CC)C(=O)N[C@@H](CCC(=O)O)C(=O)N[C@@H](Cc1ccccc1)C(=O)N[C@@H](CC(C)C)C(=O)N[C@@H](CC(C)C)C(=O)N[C@@H](CCC(=O)O)C(=O)N[C@@H](CO)C(=O)N[C@@H](Cc1c[nH]cn1)C(=O)N1CCC[C@H]1C(=O)N[C@@H](CO)C(=O)N[C@@H](CO)C(=O)NC(C)(C)C(=O)N[C@@H](Cc1c[nH]cn1)C(=O)N1CCC[C@H]1C(=O)N1CCC[C@H]1C(=O)NC1(C(=O)N[C@@H](CO)C(N)=O)CC1 [Compound 41] (H-Y[Aib]QGT[αMePhe(2-F)]TSDYSILLDKK([AEEA-AEEA-γGlu-C20 diacid])AQ[Aib]AFIEFLLESHPSS[Aib]HPP[Ac3c]S-NH2; N-terminus assumed) | 247.95 |  | 70.37 | 0.136 | 758.82 | 1.51 | 252.12 | 0.907 | 429.00 | 366.67 | 0.012 |
| CC[C@H](C)[C@H](NC(=O)[C@H](Cc1ccccc1)NC(=O)[C@H](C)NC(=O)C(C)(C)NC(=O)[C@H](CCC(N)=O)NC(=O)[C@H](C)NC(=O)[C@H](CCCCNC(=O)COCCOCCNC(=O)COCCOCCNC(=O)CC[C@H](NC(=O)CCCCCCCCCCCCCCCCCCC(=O)O)C(=O)O)NC(=O)[C@H](CCCCN)NC(=O)[C@H](CC(=O)O)NC(=O)[C@H](CC(C)C)NC(=O)[C@H](CC(C)C)NC(=O)[C@@H](NC(=O)[C@H](CO)NC(=O)[C@H](Cc1ccc(O)cc1)NC(=O)[C@H](CC(=O)O)NC(=O)[C@H](CO)NC(=O)[C@@H](NC(=O)[C@](C)(Cc1ccccc1)NC(=O)[C@@H](NC(=O)CNC(=O)[C@H](CCC(N)=O)NC(=O)C(C)(C)NC(=O)[C@@H](N)Cc1ccc(O)cc1)[C@@H](C)O)[C@@H](C)O)[C@@H](C)CC)C(=O)N[C@@H](CCC(=O)O)C(=O)N[C@@H](Cc1ccccc1)C(=O)N[C@@H](CC(C)C)C(=O)N[C@@H](CC(C)C)C(=O)N[C@@H](CCC(=O)O)C(=O)N[C@@H](CO)C(=O)N[C@@H](Cc1c[nH]cn1)C(=O)N1CCC[C@H]1C(=O)N[C@@H](CO)C(=O)N[C@@H](CO)C(=O)NC(C)(C)C(=O)N[C@@H](Cc1c[nH]cn1)C(=O)N1CCC[C@H]1C(=O)N1CCC[C@H]1C(=O)NC1(C(=O)N[C@@H](CO)C(N)=O)CC1 [Compound 42] (H-Y[Aib]QGT[αMeF]TSDYSILLDKK([AEEA-AEEA-γGlu-C20 diacid])AQ[Aib]AFIEFLLESHPSS[Aib]HPP[Ac3c]S-NH2; N-terminus assumed) | 258.57 |  | 11.52 | 0.359 | 287.47 | 2.73 | 139.17 | 1.36 | 285.26 | 488.89 | 0.009 |
| CC[C@H](C)[C@H](NC(=O)[C@H](Cc1ccccc1)NC(=O)[C@H](C)NC(=O)C(C)(C)NC(=O)[C@H](CCC(N)=O)NC(=O)[C@H](C)NC(=O)[C@H](CCCCNC(=O)COCCOCCNC(=O)COCCOCCNC(=O)CC[C@H](NC(=O)CCCCCCCCCCCCCCCCCCC(=O)O)C(=O)O)NC(=O)[C@H](CCCCN)NC(=O)[C@H](CC(=O)O)NC(=O)[C@H](CC(C)C)NC(=O)[C@](C)(CC(C)C)NC(=O)[C@@H](NC(=O)[C@H](CO)NC(=O)[C@H](Cc1ccc(O)cc1)NC(=O)[C@H](CC(=O)O)NC(=O)[C@H](CO)NC(=O)[C@@H](NC(=O)[C@](C)(Cc1ccccc1F)NC(=O)[C@@H](NC(=O)CNC(=O)[C@H](CCC(N)=O)NC(=O)C(C)(C)NC(=O)[C@@H](N)Cc1ccc(O)cc1)[C@@H](C)O)[C@@H](C)O)[C@@H](C)CC)C(=O)N[C@@H](CCC(=O)O)C(=O)N[C@@H](Cc1ccc(O)cc1)C(=O)N[C@@H](CC(C)C)C(=O)N[C@@H](CC(C)C)C(=O)N[C@@H](CCC(=O)O)C(=O)N[C@@H](CO)C(=O)N[C@@H](Cc1c[nH]cn1)C(=O)N1CCC[C@H]1C(=O)N[C@@H](CO)C(=O)N[C@@H](CO)C(=O)NC(C)(C)C(=O)N[C@@H](Cc1c[nH]cn1)C(=O)N1CCC[C@H]1C(=O)N1CCC[C@H]1C(=O)NC1(C(=O)N[C@@H](CO)C(N)=O)CC1 [Compound 43] (H-Y[Aib]QGT[αMePhe(2-F)]TSDYSI[αMeL]LDKK([AEEA-AEEA-γGlu-C20 diacid])AQ[Aib]AFIEYLLESHPSS[Aib]HPP[Ac3c]S-NH2) | 441.46 |  | 44.88 | 0.26 | 396.92 | 1.36 | 279.97 | 0.463 | 840.39 | 440.00 | 0.01 |
